Data on seven compounds can be found in article PMC10178421 (2023).

Test [1] deals with CPG-tel26 (DNA, G4) TTAGGGTTAGGGTTAGGGTTAGGGTT
Nature of the test: G4-CPG affinity chromatography. Particulars: 50 mM KCl; 10% DMSO, 10% ethanol; 60 μM compound; error ±2%.

The subject of test [2] is CPG-c-myc (DNA, G4) TGGGGAGGGTGGGGAGGGTGGGGAAGGTGGGGA
Nature of the test: G4-CPG affinity chromatography. Particulars: 50 mM KCl; 10% DMSO, 10% ethanol; 60 μM compound; error ±2%.

Test [3] has as its system CPG-ds27 (DNA, hairpin) CGCGAATTCGCGTTTCGCGAATTCGCG
Description: G4-CPG affinity chromatography. Particulars: 50 mM KCl; 10% DMSO, 10% ethanol; 60 μM compound; error ±2%.

In test [4] the test system is tel26 (DNA, G4) TTAGGGTTAGGGTTAGGGTTAGGGTT
Nature of the test: fluorescence titration (ligand quenching). Particulars: 20 mM KCl, 5 mM potassium phosphate; pH 7, 20 °C; 2 μM ligand; independent equivalent-sites fit; average over multiple binding events.

The subject of test [5] is Pu22 (DNA, G4) TGAGGGTGGGTAGGGTGGGTAA
Nature of the test: fluorescence titration (ligand quenching). Particulars: 20 mM KCl, 5 mM potassium phosphate; pH 7, 20 °C; 2 μM ligand; independent equivalent-sites fit; average over multiple binding events.

Test [6] deals with ds12 (DNA, duplex) CGCGAATTCGCG
Nature of the test: fluorescence titration (ligand quenching). Particulars: 20 mM KCl, 5 mM potassium phosphate; pH 7, 20 °C; 2 μM ligand; independent equivalent-sites fit; average over multiple binding events.

The subject of test [7] is Pu22 (DNA, G4) TGAGGGTGGGTAGGGTGGGTAA
Nature of the test: CD melting (265 nm). Particulars: no added metal cations; 10 mM Tris-HCl, pH 7; 2 μM DNA, 20 μM ligand (10 equiv).

On to `C=CC12C(=O)C(C)(O)C(CC1c1cc(C)cc3c1-c1ccc(O)c(C)c1CC3)C1=C2c2ccc(OC)c(C)c2CC1` (stereo not shown), for which the “Bound Ligand (%)” value in test [1], in test [2] and in test [3] was 0% each time.

On to `C=CC12C(=O)C(C)(O)C3CC1c1c4c(cc(C)c1C31CCc3c(ccc(O)c3C)C21O)CCc1c-4ccc(O)c1C` (stereo not shown), for which the entries for the “Bound Ligand (%)” value in test [1], in test [2] and in test [3] were 48%, 56% and 38%, respectively.

With `C=CC12C3=C(CCc4c3ccc(O)c4C)C(CC1c1cc(C)cc3c1-c1ccc(O)c(C)c1CC3)C(C)(O)C2O` (stereo not shown), the “Bound Ligand (%)” value in test [1] was 19%; in test [2], 18%; in test [3], 0%. The Kb entry in test [4] is listed as “(2.3 ± 0.9) × 10^6 M^-1”; in test [5], “(4.4 ± 0.7) × 10^5 M^-1”; in test [6], “(6.0 ± 1.7) × 10^5 M^-1”.

On to `C=Cc1c(C)c(O)cc2c1-c1ccc(O)c(C)c1CC2`, for which the results for the “Bound Ligand (%)” value in test [1], in test [2] and in test [3] were 2%, 4% and 0%, respectively.

For the compound `C=Cc1c(C)c(O[C@@H]2O[C@H](CO)[C@@H](O)[C@H](O)[C@H]2O)cc2c1-c1ccc(O)c(C)c1CC2`, the results for the “Bound Ligand (%)” value in test [1], in test [2] and in test [3] were 0%, 3% and 0%, respectively.

As to `C=Cc1c(C)c(O[C@H]2O[C@H](CO)[C@@H](O)[C@H](O)[C@H]2O)cc2c1-c1ccc(O)c(C)c1CC2`, the “Bound Ligand (%)” value in test [1], in test [2] and in test [3] was 0% each time.

`Cc1c(O)cc2c3c1CCc1cc(O[C@H]4O[C@H](CO)[C@@H](O)[C@H](O)[C@H]4O)c(C)c(c1-3)CC2`: the ΔTm result in test [7] was “+4 °C”. For the same compound, the “Bound Ligand (%)” value was 9% in test [1], 8% in test [2] and 2% in test [3].
